These results are taken from patent US10350271B2, “Lipidated peptides for lowering blood glucose” (USTAV ORGANICKE CHEMIE A BIOCHEMIE AKADEMIE VED CR, V.V.I., priority 2014, dated 2019).

Read-outs that look alike come from different tables or passages of the source. Square brackets hold non-standard residues; d marks the D form. Ends that are not written are not given here. Peptide text beside a SMILES is read from it. * marks the point of attachment. 1Nal = N[C@@H](Cc1cccc2ccccc12)C(=O)O; Palmitoyl = CCCCCCCCCCCCCCCC(=O)*; Myristoyl = CCCCCCCCCCCCCC(=O)*; X1 = CONC(=O)[C@H](Cc1ccccc1)N*; Nle = CCCC[C@H](N)C(=O)O

The target in one assay is T1, rat PrRP receptor (Rattus norvegicus, UniProt Q64121).
T1 construct: host or cells: RC-4B/C rat pituitary cell line
T1 sequence (Q64121 1-370): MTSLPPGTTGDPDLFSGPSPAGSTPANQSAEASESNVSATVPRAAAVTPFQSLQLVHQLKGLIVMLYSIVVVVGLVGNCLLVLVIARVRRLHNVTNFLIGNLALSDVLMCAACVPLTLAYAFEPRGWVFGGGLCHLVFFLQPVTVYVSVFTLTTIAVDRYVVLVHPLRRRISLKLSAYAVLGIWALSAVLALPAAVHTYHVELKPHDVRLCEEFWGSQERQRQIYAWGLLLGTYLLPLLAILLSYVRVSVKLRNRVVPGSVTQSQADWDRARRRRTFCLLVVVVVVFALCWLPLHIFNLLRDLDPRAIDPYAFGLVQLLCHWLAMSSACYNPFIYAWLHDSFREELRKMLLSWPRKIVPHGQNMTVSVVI
The experiment in a line: Competitive binding in RC-4B/C rat pituitary cells (125I-rat PrRP31). The conditions noted are these: for % of PrRP31, RC-4B/C rat pituitary cells: affinity relative to PrRP31. As for the experimental part: (§1) Competitive binding experiments were performed according to Motulsky and Neubig (Motulsky, A., et al., “Analyzing radioligand binding data,” Curr Protoc Neurosci, Chapter 7, Unit 7.5, 2002). Binding experiments were conducted with rat pituitary cells, and with Chinese Hamster Ovary (CHO) cells as follows:
The rat pituitary cell line RC-4B/C (ATCC, Manassas, USA) was grown on 24-well plates which had their bottom coated with polyethyleneimine. The cells were grown to the optimal density of 300-450 thousand cells per well. The following agents were used for the experiment: binding buffer (20 mmol·l^−1 HEPES, Ph 7.4; 118 mmol·l^−1 NaCl, 4.7 mmol·l^−1 KCl, 5 mmol·l^−1 MgCl2, 5.5 mmol·l^−1 glucose, 1 mg/ml BSA, 0.1 BPTI), unlabeled analogs of PrRP (i.e. the analog being tested) at a final concentration between 10^−11 to 10^−4 mol·l^−1, and rat ^125I-PrRP31 (labeled with radioactive Iodine-125) at a final concentration of […] (Maixnerová et al., 2011).
(§2) Plates were incubated for 60 minutes at room temperature. After incubation, the cells were solubilized in 0.1 mol/l solution of NaOH, and the radioactivity bound to the cells was counted using a γ-counter. The experiments were performed in duplicate, and repeated at least three times.
(§3) Graph Pad Prism Software (San Diego, Calif., USA) was used for evaluating the competitive binding experiments. Nonlinear regression was performed using a onsite binding model.

Assay [1] addresses T2, human PrRP receptor GPR10 (Homo sapiens, UniProt P49683).
T2 construct: host or cells: CHO cells
T2 sequence (P49683 1-370): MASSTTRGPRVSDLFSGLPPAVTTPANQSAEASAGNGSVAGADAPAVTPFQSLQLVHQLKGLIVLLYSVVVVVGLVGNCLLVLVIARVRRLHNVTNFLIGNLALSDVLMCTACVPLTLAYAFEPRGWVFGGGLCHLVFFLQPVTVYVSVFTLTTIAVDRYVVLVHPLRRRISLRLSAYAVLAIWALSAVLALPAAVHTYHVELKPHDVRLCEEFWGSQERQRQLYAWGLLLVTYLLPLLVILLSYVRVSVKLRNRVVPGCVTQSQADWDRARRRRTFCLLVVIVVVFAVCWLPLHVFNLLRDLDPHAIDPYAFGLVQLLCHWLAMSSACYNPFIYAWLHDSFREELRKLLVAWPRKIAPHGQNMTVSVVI
Briefly: Competitive binding in CHO cells transfected with human GPR10 (human 125I-PrRP31). The conditions noted are these: for % of PrRP31, GPR10 human receptor transfected in CHO cells: affinity relative to PrRP31. As for the experimental part: as §1
CHO cells transfected with human PrRP receptor GPR10 (Perkin Elmer, USA) were grown on 24-well plates coated with polyethyleneimine. The cells were grown to the optimal density of 40-80 thousand cells per well. The following agents were used for the experiment: binding buffer (25 mmol·l^−1 Tris, pH 7.4; 118 mmol·l^−1 NaCl, 10 mmol·l^−1 MgCl2, 10 mmol·l^−1 CaCl2, 5.5 mmol·l^−1 glucose, 0.5 mg/ml BSA), unlabeled analogs of PrRP (i.e. the analog being tested) at a final concentration between 10^−11 to 10^−4 mol·l^−1, and radiolabeled human ^125I-PrRP31 at a final concentration of 5×10^−11 mol·l^−1.
as §2, §3

[2] abbreviates: CHO cells, human 125I-PrRP31, read-out: Ki, GPR10 human receptor transfected in CHO cells.

`CCCC[C@H](NC(=O)[C@H](CO)NC(=O)[C@H](Cc1c[nH]cn1)NC(=O)[C@H](CCC(N)=O)NC(=O)[C@H](Cc1c[nH]cn1)NC(=O)[C@H](C)NC(=O)[C@H](CCCNC(=N)N)NC(=O)[C@@H](N)CO)C(=O)N[C@@H](CCC(=O)O)C(=O)N[C@H](C(=O)N[C@@H](CCCNC(=N)N)C(=O)N[C@H](C(=O)N1CCC[C@H]1C(=O)N[C@@H](CC(=O)O)C(=O)N[C@H](C(=O)N[C@@H](CC(N)=O)C(=O)N1CCC[C@H]1C(=O)N[C@@H](C)C(=O)N[C@@H](Cc1c[nH]c2ccccc12)C(=O)N[C@@H](Cc1ccc(O)cc1)C(=O)N[C@H](C(=O)NCC(=O)N[C@@H](CCCNC(=N)N)C(=O)NCC(=O)N[C@H](C(=O)N[C@@H](CCCNC(=N)N)C(=O)N1CCC[C@H]1C(=O)N[C@H](C(=O)NCC(=O)N[C@@H](CCCNC(=N)N)C(=O)N[C@@H](Cc1cccc2ccccc12)C(N)=O)C(C)C)[C@@H](C)CC)[C@@H](C)O)[C@@H](C)CC)[C@@H](C)O)[C@@H](C)O` [Analog 10] (H-SRAHQHS[Nle]ETRTPDINPAWYTGRGIRPVGR[1Nal]-NH2): the “% of PrRP31, RC-4B/C rat pituitary cells” value at rat PrRP receptor is listed as 4.8%. Also, the “% of PrRP31, GPR10 human receptor transfected in CHO cells” value (from here on “% of PrRP31 … in CHO cells”) in assay [1] is given as 11%.

`CCCCCCCCCCCCCC(=O)N[C@@H](CO)C(=O)N[C@@H](CCCNC(=N)N)C(=O)N[C@@H](C)C(=O)N[C@@H](Cc1c[nH]cn1)C(=O)N[C@@H](CCC(N)=O)C(=O)N[C@@H](Cc1c[nH]cn1)C(=O)N[C@@H](CO)C(=O)N[C@@H](CCCC)C(=O)N[C@@H](CCC(=O)O)C(=O)N[C@H](C(=O)N[C@@H](CCCNC(=N)N)C(=O)N[C@H](C(=O)N1CCC[C@H]1C(=O)N[C@@H](CC(=O)O)C(=O)N[C@H](C(=O)N[C@@H](CC(N)=O)C(=O)N1CCC[C@H]1C(=O)N[C@@H](C)C(=O)N[C@@H](Cc1c[nH]c2ccccc12)C(=O)N[C@@H](Cc1ccc(O)cc1)C(=O)N[C@H](C(=O)NCC(=O)N[C@@H](CCCNC(=N)N)C(=O)NCC(=O)N[C@H](C(=O)N[C@@H](CCCNC(=N)N)C(=O)N1CCC[C@H]1C(=O)N[C@H](C(=O)NCC(=O)N[C@@H](CCCNC(=N)N)C(=O)N[C@@H](Cc1cccc2ccccc12)C(N)=O)C(C)C)[C@@H](C)CC)[C@@H](C)O)[C@@H](C)CC)[C@@H](C)O)[C@@H](C)O` [Analog 11] (Myristoyl-SRAHQHS[Nle]ETRTPDINPAWYTGRGIRPVGR[1Nal]-NH2): the “% of PrRP31, RC-4B/C rat pituitary cells” value on rat PrRP receptor stood at 124%. Further, the “% of PrRP31 … in CHO cells” value in assay [1] came out at 292%. Take `CCCC[C@H](NC(=O)CNC(=O)[C@H](CCCNC(=N)N)NC(=O)[C@@H]1CCCN1C(=O)[C@H](Cc1ccc(O)cc1)NC(=O)[C@H](Cc1c[nH]c2ccccc12)NC(=O)[C@H](Cc1c[nH]cn1)NC(=O)[C@@H](NC(=O)[C@H](CC(=O)O)NC(=O)[C@H](C)NC(=O)[C@@H]1CCCN1C(=O)[C@H](CCCNC(=N)N)NC(=O)[C@H](CCC(N)=O)NC(=O)[C@H](Cc1c[nH]cn1)NC(=O)[C@@H](N)CO)[C@@H](C)O)C(=O)N[C@@H](Cc1ccccc1)C(=O)N1CCC[C@H]1C(=O)N[C@H](C(=O)N[C@H](C(=O)NCC(=O)N[C@@H](CCCNC(=N)N)C(=O)N[C@H](C(=O)N[C@H](C(=O)N[C@@H](C)C(=O)N[C@@H](CCCNC(=N)N)C(=O)N[C@@H](CC(N)=O)C(=O)NCC(=O)N[C@@H](CCC(=O)O)C(=O)N[C@H](C(=O)N[C@@H](CO)C(=O)N[C@@H](CCCNC(=N)N)C(=O)O)C(C)C)[C@@H](C)O)[C@@H](C)CC)[C@@H](C)CC)[C@@H](C)O` [Analog 19] (H-SHQRPADTHWYPRG[Nle]FPTIGRITARNGEVSR-OH; N-terminus and C-terminus assumed): the Ki at rat PrRP receptor (RC-4B/C cells, displacement of 125I-rat PrRP31, read-out: Ki, RC-4B/C rat pituitary cells ^25I-rat PrRP31) was determined as 1320 ± 1260 µM. Moreover, at rat PrRP receptor, the “% of PrRP31, RC-4B/C rat pituitary cells” value was determined as 0.00004%.

On to `CCCCCCCCCCCCCCCC(=O)N[C@@H](CO)C(=O)N[C@@H](CCCNC(=N)N)C(=O)N[C@H](C(=O)N[C@@H](Cc1c[nH]cn1)C(=O)N[C@@H](CCCNC(=N)N)C(=O)N[C@@H](Cc1c[nH]cn1)C(=O)N[C@@H](CO)C(=O)N[C@@H](CCSC)C(=O)N[C@@H](CCC(=O)O)C(=O)N[C@H](C(=O)N[C@@H](CCCNC(=N)N)C(=O)N[C@H](C(=O)N1CCC[C@H]1C(=O)N[C@@H](CC(=O)O)C(=O)N[C@H](C(=O)N[C@@H](CC(N)=O)C(=O)N1CCC[C@H]1C(=O)N[C@@H](C)C(=O)N[C@@H](Cc1c[nH]c2ccccc12)C(=O)N[C@@H](Cc1ccc(O)cc1)C(=O)N[C@@H](C)C(=O)N[C@@H](CO)C(=O)N[C@@H](CCCNC(=N)N)C(=O)NCC(=O)N[C@H](C(=O)N[C@@H](CCCNC(=N)N)C(=O)N1CCC[C@H]1C(=O)N[C@H](C(=O)NCC(=O)N[C@@H](CCCNC(=N)N)C(=O)N[C@@H](Cc1ccccc1)C(=O)NOC)C(C)C)[C@@H](C)CC)[C@@H](C)CC)[C@@H](C)O)[C@@H](C)CC)[C@@H](C)O` [Analog 45] (Palmitoyl-SRTHRHSMEIRTPDINPAWYASRGIRPVGR-X1), for which, in assay [1], the “% of PrRP31 … in CHO cells” value was determined as 92%. Take `CCCCCCCCCCCCCCCC(=O)NCCCC[C@H](NC(=O)[C@@H](NC(=O)[C@H](CC(=O)O)NC(=O)[C@@H]1CCCN1C(=O)[C@@H](N)[C@@H](C)O)[C@@H](C)CC)C(=O)N1CCC[C@H]1C(=O)N[C@@H](C)C(=O)N[C@@H](Cc1c[nH]c2ccccc12)C(=O)N[C@@H](Cc1ccc(O)cc1)C(=O)N[C@@H](C)C(=O)N[C@@H](CO)C(=O)N[C@@H](CCCNC(=N)N)C(=O)NCC(=O)N[C@H](C(=O)N[C@@H](CCCNC(=N)N)C(=O)N1CCC[C@H]1C(=O)N[C@H](C(=O)NCC(=O)N[C@@H](CCCNC(=N)N)C(=O)N[C@@H](Cc1ccccc1)C(N)=O)C(C)C)[C@@H](C)CC` [Analog 49] (H-TPDIK(Palmitoyl)PAWYASRGIRPVGRF-NH2): the Ki in assay [1] (setting [2]) was 0.00434 ± 0.00045 µM. Besides, the “% of PrRP31 … in CHO cells” value in assay [1] amounted to 90%. For `CCCCCCCCCCCCCCCC(=O)NCCCC[C@H](NC(=O)[C@@H]1CCCN1C(=O)[C@H](CC(N)=O)NC(=O)[C@@H](NC(=O)[C@H](CC(=O)O)NC(=O)[C@@H]1CCCN1C(=O)[C@@H](N)[C@@H](C)O)[C@@H](C)CC)C(=O)N[C@@H](Cc1c[nH]c2ccccc12)C(=O)N[C@@H](Cc1ccc(O)cc1)C(=O)N[C@@H](C)C(=O)N[C@@H](CO)C(=O)N[C@@H](CCCNC(=N)N)C(=O)NCC(=O)N[C@H](C(=O)N[C@@H](CCCNC(=N)N)C(=O)N1CCC[C@H]1C(=O)N[C@H](C(=O)NCC(=O)N[C@@H](CCCNC(=N)N)C(=O)N[C@@H](Cc1ccccc1)C(N)=O)C(C)C)[C@@H](C)CC` [Analog 50] (H-TPDINPK(Palmitoyl)WYASRGIRPVGRF-NH2) the same measures were 0.00564 ± 0.00035 µM and 69%. “SRAHQHSMETRTPDINPAWYTGRGIRPVGRF-NH2 [Rat PrRP31, reference compound]” came in with a Ki in assay [1] of 0.00389 ± 0.00112 µM.
